# Measurements published in patent publication US6337318B1, “Sustained GnRH peptide-release formulation” (Peptech, Ltd., priority 1996, dated 2002).
# Columns and labels:
# [1] = system: prostate cancer in rats; settings: controlled dose over 30 days vs equivalent or double daily doses of free peptide; cited from earlier work
# [2] = system: plasma testosterone; assay: suppression of plasma testosterone levels in implanted dogs; type: in vivo, dog; settings: 5% deslorelin; for duration of suppression of testosterone levels: rods of 93% stearin, 2% lecithin, 0.5, 1 or 2 x 120 mg rod containing 6 mg deslorelin
# Method: (§1) Stearin (supplied as free flowing beads of 1 mm or less in diameter made by Vandenberg Foods) and lecithin (supplied as a deep brown viscous syrup from R P Schearer) were hand mixed using a spatula in a small beaker. The deslorelin was then added and thoroughly mixed into the excipients. The mixed material was transferred to the barrel of a ram extruder that has a 1 mm nozzle attached and is equilibrated to 55° C. The ram extrusion pressure is 40 psi. The ram was attached and pressure applied until the product began to extrude. At this point the pressure was backed off and the product allowed to reach 55° C. The product was then extruded-3 g over a 30 second period. The resulting extrudate was allowed to cool and then broken up and re-extruded through a 1 mm nozzle. This step was included to ensure uniformity of content throughout the matrix. The 1 mm nozzle was then replaced with a 2.3 mm diameter nozzle. The same product temperature equilibration procedure was conducted prior to extrusion. The product was then extruded and after cooling the long rods produced could be sectioned into lengths of the required weight.
# (§2) The rods produced were implanted into male dogs using standard techniques.
# Stearin beads (ADMUL PO 58 from Quest International Australasia Limited) and lecithin (Topcithin 300, Bronson & Jacobs, Australia) were hand mixed using a spatula in a small beaker. The deslorelin was then added and thoroughly mixed into the excipients. The material was transferred to the barrel of a ram extruder that has a 1 mm nozzle attached and is equilibrated to 55.8° C. The ram extrusion pressure is 40 psi. The ram was then attached and pressure applied until the product began to extrude. At this point the pressure was backed off and the product allowed to reach 55.8° C. The product was then extruded-3 g over a 30 second period. The resulting extrudate was allowed to cool and then broken up before re-extruding the mixed granulation through the 1 mm nozzle at 58.3° C. and into an injectable mould that generates a finished rod product that is 2.3 mm in diameter and approximately 25 mm long. […]
# [3] = in vitro release of deslorelin from the rods; type: physicochemical; settings: rods of 94% stearin, 5% deslorelin (on an active basis), 1% lecithin
# Method: Typically, the formulation of the first aspect will release the peptide agonist or analogue, in vitro, into phosphate buffered saline (PBS: pH 7.3, prepared by dissolving 8.00 g of sodium chloride, 1.00 g di-sodium hydrogen phosphate anhydrous, 0.40 g sodium dihydrogen phosphate dihydrate (0.31 g if anydrous), and 0.05 g sodium azide in 1 litre of deionised water), at 37° C. at a rate of about 2-350 μg/day for at least 200 days but preferably for at least 300 days.
# as §1, with “The same product temperature equilibration procedure was conducted prior to extrusion. The product was then extruded and after cooling the long rods produced could be sectioned into lengths of the required weight.” left out
# [4] = system: estradiol levels; settings: female patients; provided peptide delivered so as to maintain a constant minimum blood level; cited from earlier work
# [5] = system: male dogs; assay: testicular size in male dogs implanted with rods; type: in vivo, dog; settings: implanted rods of 94% stearin, 5% deslorelin, 1% lecithin
# Method: as §1, §2
# [6] = system: advanced prostatic cancer; settings: monthly subcutaneous injections, advanced prostatic cancer patients; cited from earlier work
compound,measurement,setting,value
5-oxo-L-prolyl-L-histidyl-L-tryptophyl-L-seryl-L-tyrosyl-D-tryptophyl-L-leucyl-L-arginyl-L-prolylglycinamide. [triptorelin],"suppression of prostate tumour weight, microencapsulated form versus daily subcutaneous free peptide",[1],more effective
same,"suppression of serum testosterone levels, microencapsulated form versus daily subcutaneous free peptide",[1],more effective
"CCNC(=O)[C@@H]1CCCN1C(=O)[C@H](CCCN=C(N)N)NC(=O)[C@H](CC(C)C)NC(=O)[C@@H](Cc1c[nH]c2ccccc12)NC(=O)[C@H](Cc1ccc(O)cc1)NC(=O)[C@H](CO)NC(=O)[C@H](Cc1c[nH]c2ccccc12)NC(=O)[C@H](Cc1cnc[nH]1)NC(=O)[C@@H]1CCC(=O)N1 [deslorelin, [6-D-tryptophan-9-(N-ethyl-L prolinamide)-10-deglycinamide]]",duration of suppression of testosterone levels,[2]; bitches,at least 5 months
same,duration of suppression of testosterone levels,[2]; dogs (male),≥ 12 months
same,duration of suppression of plasma testosterone levels,"[2]; male dogs, implanted rods of 94% stearin, 1% lecithin",at least 4 months
same,duration of release of deslorelin from the rods in vitro,[3],up to 250 days
same,suppression of estradiol levels,[4],effective
same,duration of continued decline in testicular size,[5],at least 5 months
"CC(C)C[C@H](NC(=O)[C@@H](COC(C)(C)C)NC(=O)[C@H](Cc1ccc(O)cc1)NC(=O)[C@H](CO)NC(=O)[C@H](Cc1c[nH]c2ccccc12)NC(=O)[C@H](Cc1cnc[nH]1)NC(=O)[C@@H]1CCC(=O)N1)C(=O)N[C@@H](CCCNC(=N)N)C(=O)N1CCC[C@H]1C(=O)NNC(N)=O [goserelin, 3-[5 oxo-L-prolyl-L-tryptophyl-L-seryl-L-tyrosyl-(3-O-tert-butyl)-D-seryl-L-leucyl-L-arginyl-L-prolyl] cabazamide acetate.]",efficacy compared with orchiectomy,[6],as effective as orchiectomy
same,tolerability,[6],well tolerated
